We go through eleven compounds from paper PMC8480782, “Efficient Dimerization Disruption of Leishmania infantum Trypanothione Reductase by Triazole-phenyl-thiazoles” (Journal of Medicinal Chemistry, 2021).

The target of one assay is T1, LiTryR (Leishmania infantum, UniProt A4HSF7).
T1 construct: HIS (N); made in house; host or cells: E. coli BL21 (DE3) Rossetta
The assay can be described thus: Time-dependent inhibition kinetics of LiTryR (modified DTNB-coupled assay). In kind it is biochemical. The settings on record: for mechanism of LiTryR inhibition: reaction progress curves / kinetic analysis; for α* (overall two-step process): fit to eq 4; for α (initial EI complex): fit to eq 3. The method, then: The inhibitory constants Ki and Ki* for 19a were calculated following a slightly modified version of the standard DTNB-coupled assay.[52] TS2 was serially diluted (sixfold dilution from 1666 to 52 μM) in a buffer containing 40 mM HEPES (pH 7.5) and 1 mM EDTA. The different TS2 solutions were dispensed (15 μL) in a 96-well microplate. 19a was serially diluted in DMSO (sixfold dilution from 1875 to 445 μM). […] These mixtures (180 μL) were subsequently added to the appropriate wells previously filled with different TS2 solutions. The assay was initiated by addition of 55 μL of buffer containing 40 mM HEPES (pH 7.5), 1 mM EDTA, 272.73 μM NADP^+, 0.01% glycerol, and 3.5 nM recombinant LiTryR using an automated dispensing system (PerkinElmer, Waltham, MA). The order of addition was essential to avoid enzyme preincubation with the inhibitor or the substrates. […] TryR oxidoreductase activity was monitored at 26 °C by an increase in absorbance at 412 nm in an EnSpire Multimode Plate Reader (PerkinElmer, Waltham, MA). Coupling an automated dispenser module to the spectrophotometer enabled real-time detection of the enzymatic reaction, which was crucial for high-quality nonlinear fits of the experimental data and, especially, to estimate the initial velocity of the progress curves in the presence of 19a. To guarantee linearity of the enzyme reaction in the absence of an inhibitor, the analysis was performed with data obtained during the first 20 000 s to avoid TS2 depletion. […] All of the assays were conducted in three independent experiments.
kobs values were estimated for every 19a concentration at all TS2 concentrations by fitting the values of the TNB concentration produced during each enzymatic reaction to eq 1.[42b],[53] [drawing 2] 1 where vi and vs are the initial and the steady-state velocities, respectively, kobs is the apparent first-order rate constant for the conversion of vi into the steady-state velocity (vs), and d is a parameter that indicates the displacement of the curve on the vertical ordinate and takes into account any nonzero value of the measured signal at time zero caused by some of the reagents. The apparent inhibition constants (Ki^app and Ki*^app) for each TS2 concentration were determined by fitting the kobs values obtained at different 19a concentrations to eq 2 [drawing 3] 2 where Ki^app is the apparent value of the Ki for the initial encounter complex (EI) and Ki*^app is the apparent value of the overall inhibition constant Ki* to form a higher-affinity complex (E*I). k6 is the first-order rate constant that defines the reverse isomerization step that returns E*I to EI.[42a],[53]
The Ki value for the formation of the EI complex was determined by fitting the Ki^app values obtained at different TS2 concentrations to eq 3. In addition, this graph was used to assess the inhibition modality of 19a during the first equilibrium of its two-step binding mechanism. […] In addition, this graph was used to assess the overall inhibition modality of 19a during its two-step binding mechanism. As explained above, the value obtained for α defines the mode of inhibition.[42a] [drawing 5] 4
Figure S1. […]
Lineweaver–Burk plots of reciprocal initial velocities ( vi) versus reciprocals of four TS2

The test system of assay [1] is L. infantum promastigotes. The assay can be described thus: Leishmanicidal activity on promastigotes (PI exclusion, flow cytometry). In kind it is cell-based, Leishmania infantum. As to conditions: for SIp (ratio of EC50 against human cells to EC50 against promastigotes): HepG2 / promastigotes; for EC50: Leishmania infantum. In outline: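 Log-phase L. infantum promastigotes (MCAN/ES/89/IPZ229/1/89) at 2 × 10^6 parasites/mL in RPMI-1640 with 10% FCS, pH 7.2, were drug-treated for 24 h at 26 °C. Viability was scored by flow cytometric propidium iodide exclusion, and EC50 was derived by nonlinear regression.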

The mark [2] stands for this setting: 24 h at 26 °C, read-out: EC50 promastigotes.
Setting [3] is: promastigotes or amastigotes (either form), read-out: EC50 against Leishmania promastigotes or amastigotes.
Setting [4] is: fit of Ki*^app to eq 4, read-out: Ki* (overall two-step process).
The mark [5] stands for this setting: two-step mechanism, fit of Ki^app to eq 3, read-out: Ki (initial EI complex).

SMILES strings stand for the structures. Several values for one entry are separate records, joined by “and”; a condition that tells them apart may be missing. Identical values can stand only once. Entries after “also recorded” stand apart in the source; their conditions may differ. Like-named read-outs stand apart in the source and are kept apart here.

T1 sequence (A4HSF7 1-491): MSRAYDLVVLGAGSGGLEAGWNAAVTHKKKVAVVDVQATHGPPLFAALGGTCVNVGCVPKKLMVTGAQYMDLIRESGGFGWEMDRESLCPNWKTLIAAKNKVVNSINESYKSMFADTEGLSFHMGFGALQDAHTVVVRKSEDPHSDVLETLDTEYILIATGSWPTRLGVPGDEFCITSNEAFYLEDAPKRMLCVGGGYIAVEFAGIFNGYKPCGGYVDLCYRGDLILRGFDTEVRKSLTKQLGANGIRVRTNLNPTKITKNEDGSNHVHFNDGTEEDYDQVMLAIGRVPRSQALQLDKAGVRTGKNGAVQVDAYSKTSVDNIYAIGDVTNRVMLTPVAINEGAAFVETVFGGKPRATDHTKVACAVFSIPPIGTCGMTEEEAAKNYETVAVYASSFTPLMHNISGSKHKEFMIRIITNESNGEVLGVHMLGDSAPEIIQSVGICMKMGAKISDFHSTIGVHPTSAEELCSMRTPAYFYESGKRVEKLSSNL

Consider `NCCCCc1cn(-c2ccc(-c3nc(CCc4ccc5c(c4)CCCN5)cs3)c(OCCN3CCNC3=O)c2)nn1.O=C(O)C(F)(F)F.O=C(O)C(F)(F)F` [12q], for which the “mechanism of LiTryR inhibition” value at LiTryR is “single-step binding mechanism”. For the same compound, the “α, reversible single-step mechanism of time-dependent inhibition” value on LiTryR (single-step mechanism (Scheme S4)) was determined as 0.3 ± 0.2. Further, the Ki on LiTryR (single-step mechanism (Scheme S4), read-out: Ki, reversible single-step mechanism of time-dependent inhibition) was 13.6 ± 5.1 µM.
Turning to `NCCCCc1cn(-c2ccc(-c3nc(-c4cccc(-c5csc(-c6ccc(-n7cc(CCCCN)nn7)cc6OCCN6CCNC6=O)n5)c4)cs3)c(OCCN3CCNC3=O)c2)nn1.O=C(O)C(F)(F)F.O=C(O)C(F)(F)F` [compound 22, 1,1′-((((1,3-Phenylenebis(thiazole-4,2-diyl))bis(5-(4-(4-ammoniobutyl)-1H-1,2,3-triazol-1-yl)-2,1-phenylene))bis(oxy))bis(ethane-2,1-diyl))bis(imidazolidin-2-one)bis(2,2,2-trifluoroacetate)], in assay [1], the “SIp (ratio of EC50 against human cells to EC50 against promastigotes)” value was 8.0. Further, in assay [1] (setting [2]), the half-maximal effective concentration (EC50) was determined as 3.8 ± 0.1 µM.
`NCCNCc1nccn1-c1ccc(-c2nc(CCc3ccc4ccccc4c3)cs2)c(OCCN2CCNC2=O)c1` [compound 2, reference compound]: the “SIp (ratio of EC50 against human cells to EC50 against promastigotes)” value in assay [1] is given as 2.1/2.1. Besides, the 50% effective concentration (EC50) in assay [1] (setting [2]) stood at 12.8 ± 0.7 µM.
For the compound `NCCCCc1cn(-c2ccc(-c3nc(CCc4ccc(-c5ccccc5)cc4)cs3)c(OCCN3CCNC3=O)c2)nn1.O=C(O)C(F)(F)F` [12c, 1-(2-(2-(4-(2-([1,1′-Biphenyl]-4-yl)ethyl)thiazol-2-yl)-5-(4-(4-ammoniumbutyl)-1H-1,2,3-triazol-1-yl)phenoxy)ethyl)imidazolidin-2-one 2,2,2-Trifluoroacetate], the “mechanism of LiTryR inhibition” value on LiTryR was “slow-binding inhibitors”. Further, the “SIp (ratio of EC50 against human cells to EC50 against promastigotes)” value in assay [1] was 8.8. The 50% effective concentration (EC50) is 4.9 ± 0.4 µM in assay [1] (setting [2]) and < 10 µM in assay [1] (setting [3]).
As to `NCCCCc1cn(-c2ccc(-c3nc(-c4ccccc4)c(-c4ccccc4)s3)c(OCCN3CCNC3=O)c2)nn1.O=C(O)C(F)(F)F` [19a, 1-(2-(5-(4-(4-Ammoniobutyl)-1H-1,2,3-triazol-1-yl)-2-(4,5-diphenylthiazol-2-yl)phenoxy)ethyl)imidazolidin-2-one 2,2,2-Trifluoroacetate], the “β, noncompetitive hyperbolic inhibition mechanism” value at LiTryR (DTNB-coupled assay, initial velocities, alpha value of 1) turned out to be 0.5 ± 0.1. For the same compound, the Ki turned out to be 12.7 ± 3.5 µM at LiTryR (DTNB-coupled assay, initial velocities, alpha value of 1, read-out: Ki, noncompetitive hyperbolic inhibition mechanism); 0.6 ± 0.1 µM on LiTryR ([TS2] 3.1 μM, read-out: Ki*^app); 8.9 ± 3.1 µM on LiTryR ([TS2] 3.1 μM, read-out: Ki^app); 0.5 ± 0.1 µM at LiTryR ([TS2] 6.2 μM, read-out: Ki*^app); 7.2 ± 1.7 µM on LiTryR ([TS2] 6.2 μM, read-out: Ki^app); 0.5 ± 0.2 µM on LiTryR ([TS2] 12.5 μM, read-out: Ki*^app). In addition, the Ki amounted to 5.2 ± 2.6 µM on LiTryR ([TS2] 12.5 μM, read-out: Ki^app); 0.8 ± 0.2 µM on LiTryR ([TS2] 25 μM, read-out: Ki*^app); 8.3 ± 3 µM on LiTryR ([TS2] 25 μM, read-out: Ki^app); 1.4 ± 0.3 µM at LiTryR ([TS2] 50 μM, read-out: Ki*^app); 9.3 ± 3.2 µM at LiTryR ([TS2] 50 μM, read-out: Ki^app); 1.3 ± 0.6 µM at LiTryR ([TS2] 100 μM, read-out: Ki*^app). Moreover, the Ki at LiTryR ([TS2] 100 μM, read-out: Ki^app) was 5 ± 2.7 µM; on LiTryR (setting [4]), 0.5 ± 0.1 µM; at LiTryR (setting [5]), 7.8 ± 1.7 µM. Besides, the “α* (overall two-step process)” value at LiTryR amounted to 5.5 ± 2.9. Moreover, the “k6, value selected as conservative upper value” at LiTryR (fixed for fitting to eq 2) was ≤ 3 × 10^–5 s^–1. Also, the “mechanism of LiTryR inhibition” value at LiTryR is “slow-binding inhibitors; also recorded: nonlinear noncompetitive hyperbolic inhibition mechanism”. Also, on LiTryR (two-step mechanism), the “α (initial EI complex)” value came out at 0.8 ± 0.4. For the same compound, in assay [1], the “SIp (ratio of EC50 against human cells to EC50 against promastigotes)” value amounted to 2.5. Moreover, the 50% effective concentration (EC50) in assay [1] (setting [2]) turned out to be 10.7 ± 1.3 µM.
Turning to `NCCCCc1cn(-c2ccc(-c3nc(CCc4ccc5ccccc5c4)cs3)c(OCCN3CCNC3=O)c2)nn1.O=C(O)C(F)(F)F` [12b, 1-(2-(5-(4-(4-Ammoniumbutyl)-1H-1,2,3-triazol-1-yl)-2-(4-(2-(naphthalen-2-yl)ethyl)thiazol-2-yl)phenoxy)ethyl)imidazolidin-2-one 2,2,2-Trifluoroacetate], the Ki on LiTryR (setting [4]) came out at 2.6 ± 0.6 µM; at LiTryR (setting [5]) it was 10 ± 2.7 µM. The “α* (overall two-step process)” value at LiTryR was found to be 1.3 ± 0.6. In addition, on LiTryR, the “mechanism of LiTryR inhibition” value is on record as “slow-binding inhibitors; also recorded: two-step process of enzyme isomerization”. Besides, the “α (initial EI complex)” value at LiTryR (two-step mechanism) is on record as 2.0 ± 1.3. Also, the “SIp (ratio of EC50 against human cells to EC50 against promastigotes)” value in assay [1] is on record as 4.0. Also, the EC50 in assay [1] (setting [2]) was 8.4 ± 0.3 µM; in assay [1] (setting [3]), < 10 µM.
For the compound `NCCCCc1cn(-c2ccc(-c3nc(CCc4ccc5oc6ccccc6c5c4)cs3)c(OCCN3CCNC3=O)c2)nn1.O=C(O)C(F)(F)F` [12s], the “mechanism of LiTryR inhibition” value on LiTryR is given as “slow-binding inhibitors”.
On to `NCCNCc1nccn1-c1ccc(-c2nc(CCc3ccc(-c4ccccc4)cc3)cs2)c(OCCN2CCNC2=O)c1` [compound 3, reference compound], for which the “SIp (ratio of EC50 against human cells to EC50 against promastigotes)” value in assay [1] is 2.7 and 2.7/2.7. Besides, the 50% effective concentration (EC50) in assay [1] (setting [2]) was 5.3 ± 0.3 µM.
For `NCCCc1cn(-c2ccc(-c3nc(CCc4ccc(-c5ccccc5)cc4)cs3)c(OCCN3CCNC3=O)c2)nn1.O=C(O)C(F)(F)F` [12i], in assay [1], the “SIp (ratio of EC50 against human cells to EC50 against promastigotes)” value came out at 10.4. For the same compound, the EC50 in assay [1] (setting [2]) came out at 5.8 ± 0.7 µM.
With `NCCCCc1cn(-c2ccc(-c3nc(CCc4ccc5c(c4)CCO5)cs3)c(OCCN3CCNC3=O)c2)nn1.O=C(O)C(F)(F)F` [12r], the “mechanism of LiTryR inhibition” value at LiTryR is “slow-binding inhibitors”. In addition, in assay [1], the “SIp (ratio of EC50 against human cells to EC50 against promastigotes)” value is 1.2. The concentration for a half-maximal effect (EC50) in assay [1] (setting [2]) turned out to be 23.8 ± 0.5 µM.
On to `NCCCCc1cn(-c2ccc(-c3nc(-c4ccccc4)cs3)c(OCCN3CCNC3=O)c2)nn1.O=C(O)C(F)(F)F` [12n], for which the values for the concentration for a half-maximal effect (EC50) in assay [1] (setting [2]) and in assay [1] (setting [3]) were 5.4 ± 0.08 µM and < 10 µM, respectively.
